# Assay results from paper PMC8092108, “Mycophenolate suppresses inflammation by inhibiting prostaglandin synthases: a study of molecular and experimental drug repurposing” (PeerJ, 2021).
# Several values for one entry are separate records, joined by “and”; a condition that tells them apart may be missing. Equal entries are not always repeated.
# Experiments:
# [1] = tested on: atopic dermatitis and vitiligo; settings: cited from earlier work
# [2] = tested on: carrageenan-induced paw edema; assay: Carrageenan-induced rat paw edema test; type: in vivo; parameters: key to Tukey's test Summary: Significant (s); non-significant (ns); settings: for Tukey's test Significant? / Tukey's test Summary: mean paw size 3–5 h; for Rat paw size: individual rats 1-7
# Description: The in vivo assay was performed by the rat paw edema inhibition test as previously described ([Morris, 2003]; [Winter, Risley & Nuss, 1962]). Forty-nine male adult albino rats weighing […] were obtained from the Animal Breeding Center at the College of Veterinary Medicine, King Faisal University, and were randomly divided into seven groups (n = 7/group). The animal groups included the nontreated control group, carrageenan group, and five groups receiving carrageenan and treated with either indomethacin, celecoxib, or MMF at three doses (12.5, 25, and 50 mg/kg). All rats were allowed free access to food and water. All cages were kept in controlled rooms at 25 °C and exposed to a 12-h light/dark cycle. MMF and two reference drugs, indomethacin and celecoxib, were suspended in 1% NaCMC in normal saline. A 1% carrageenan solution in normal saline was injected into the subplantar area of the right hind paw of rats. One hour before injection of carrageenan, rats were given either indomethacin or celecoxib at a dose rate of 10 mg/kg or MMF at three dose levels of 12.5, 25, and 50 mg/kg by oral administration. […] The measurements were blind to avoid measurement bias. The King Faisal University Ethics Committee (approval no. KFU-REC/2020-10-11) approved all animal experiments. Since no samples were taken from rats, there were no anesthesia procedures. The size of the hind paw was only measured in non-anesthetized rats. At the end of the experiment, all rats were euthanized according to the regulations of the King Faisal University Ethics Committee by an overdose of pentobarbital (200 mg/kg IP) and decapitation. The effect of MMF at different doses on relieving rat paw edema was compared with the control and standard NSAID-treated groups. Significant differences were determined by one-way analysis of variance (ANOVA) with Tukey’s post hoc test. All steps were implemented using GraphPad prism software (GraphPad Software, La Jolla, CA, USA).
# [3] = Indomethacin vs. MMF 12.5 mg/kg
smiles,measurement,setting,value
COc1c(C)c2c(c(O)c1C/C=C(\C)CCC(=O)OCCN1CCOCC1)C(=O)OC2 [Mycophenolate mofetil],Treatment of atopic dermatitis,"[1]; oral 1–2 g daily for 12 weeks, ref Grundmann-Kollmann et al., 2001, Neuber et al., 2000",highly effective
same,Tolerability of high topical concentration,"[1]; topical 15% MMF, ref Handjani et al., 2017",well tolerated
same,Treatment of vitiligo,"[1]; topical application of 15% MMF, ref Handjani et al., 2017",highly effective
same,"Rat paw size at 3, 4 and 5 h after treatment","[2]; 12.5, 25, 50 mg/kg MMF",dose-dependent decrease in edema
same,Rat paw edema 2–5 h after drug administration,"[2]; 12.5, 25 and 50 mg/kg MMF oral",significant decrease
same,Tukey's test Significant?,[2]; Carrageenan vs. MMF 12.5 mg/kg,Yes
same,Tukey's test Summary,[2]; Carrageenan vs. MMF 12.5 mg/kg,s
same,Tukey's test Significant?,[2]; Carrageenan vs. MMF 25 mg/kg,Yes
same,Tukey's test Summary,[2]; Carrageenan vs. MMF 25 mg/kg,s
same,Tukey's test Significant?,[2]; Carrageenan vs. MMF 50 mg/kg,Yes
same,Tukey's test Summary,[2]; Carrageenan vs. MMF 50 mg/kg,s
same,Tukey's test Significant?,[2]; Celecoxib vs. MMF 12.5 mg/kg,No
same,Tukey's test Summary,[2]; Celecoxib vs. MMF 12.5 mg/kg,ns
same,Tukey's test Significant?,[2]; Celecoxib vs. MMF 25 mg/kg,No
same,Tukey's test Summary,[2]; Celecoxib vs. MMF 25 mg/kg,ns
same,Tukey's test Significant?,[2]; Celecoxib vs. MMF 50 mg/kg,No
same,Tukey's test Summary,[2]; Celecoxib vs. MMF 50 mg/kg,ns
same,Tukey's test Significant?,[2]; [3],No
same,Tukey's test Summary,[2]; [3],ns
same,Tukey's test Significant?,[2]; Indomethacin vs. MMF 25 mg/kg,No
same,Tukey's test Summary,[2]; Indomethacin vs. MMF 25 mg/kg,ns
same,Rat paw size,"[2]; MMF 12.5 mg Kg oral, Time (h) 1",0.75 cm (3×) and 0.73 cm (3×) and 0.7 cm
same,Rat paw size,"[2]; MMF 12.5 mg Kg oral, Time (h) 2",0.75 cm (3×) and 0.76 cm (3×) and 0.8 cm
same,Rat paw size,"[2]; MMF 12.5 mg Kg oral, Time (h) 3",0.75 cm and 0.8 cm
same,Rat paw size,"[2]; MMF 25 mg/Kg oral, Time (h) 1",0.74 cm (2×) and 0.75 cm (4×) and 0.77 cm
same,Rat paw size,"[2]; MMF 25 mg/Kg oral, Time (h) 2",0.7 cm (3×) and 0.65 cm and 0.71 cm and 0.75 cm and 0.69 cm
same,Rat paw size,"[2]; MMF 25 mg/Kg oral, Time (h) 3",0.59 cm and 0.6 cm and 0.55 cm (2×) and 0.5 cm and 0.65 cm and 0.57 cm
same,Rat paw size,"[2]; MMF 25 mg/Kg oral, Time (h) 4",0.46 cm and 0.5 cm (2×) and 0.45 cm (2×) and 0.47 cm and 0.48 cm
same,Rat paw size,"[2]; MMF 25 mg/Kg oral, Time (h) 5",0.45 cm (5×) and 0.5 cm and 0.4 cm
same,Rat paw size,"[2]; MMF 25 mg/Kg oral, Time (h) 6",0.57 cm and 0.6 cm (2×) and 0.5 cm and 0.65 cm and 0.55 cm and 0.54 cm
same,Rat paw size,"[2]; MMF 50mg/kg oral, Time (h) 1",0.75 cm
same,Rat paw size,"[2]; MMF 50mg/kg oral, Time (h) 2",0.75 cm and 0.7 cm (3×) and 0.65 cm and 0.66 cm and 0.68 cm
same,Rat paw size,"[2]; MMF 50mg/kg oral, Time (h) 3",0.65 cm (2×) and 0.6 cm (2×) and 0.55 cm and 0.62 cm and 0.58 cm
same,Rat paw size,"[2]; MMF 50mg/kg oral, Time (h) 4",0.55 cm (2×) and 0.5 cm (2×) and 0.52 cm and 0.53 cm and 0.51 cm
same,Rat paw size,"[2]; MMF 50mg/kg oral, Time (h) 5",0.45 cm (3×) and 0.5 cm and 0.46 cm (3×)
same,Rat paw size,"[2]; MMF 50mg/kg oral, Time (h) 6",0.6 cm (3×) and 0.5 cm and 0.65 cm and 0.56 cm and 0.58 cm
same,Rat paw edema after treatment,"[2]; MMF 12.5–50 mg/kg, indomethacin or celecoxib 10 mg/kg oral",significantly relieved
same,Most effective dose in the rat paw edema test,[2]; oral,50 mg/kg
